Reference: PubChem BioAssay (NCI)
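Five compound concentrations were applied to cells in 96-well plates for 48 hours; endpoints were derived by simple linear interpolation of the resulting dose-response curve. TGI is the concentration that stops growth completely.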

Columns and labels:
Assay in all cases: NCI tumour cell line growth inhibition, 48 h
[1] = test system: UO-31 renal
[2] = test system: TK-10 renal
[3] = test system: UACC-62 melanoma
[4] = test system: K-562 leukemia
[5] = test system: SN12C renal
[6] = test system: SF-539 CNS
[7] = test system: DMS 273 small cell lung
[8] = test system: LXFL 529 NSCLC
[9] = test system: HL-60(TB) leukemia
[10] = test system: HT29 colon
[11] = test system: IGROV1 ovarian
[12] = test system: A549 NSCLC
[13] = test system: M19-MEL melanoma
[14] = test system: SW-620 colon
[15] = test system: RXF 393 renal
[16] = test system: OVCAR-5 ovarian
[17] = test system: SR leukemia
[18] = test system: HOP-18 NSCLC
[19] = test system: RPMI-8226 leukemia
[20] = test system: EKVX NSCLC
[21] = test system: SF-268 CNS
[22] = test system: NCI-H23 lung
[23] = test system: M14 melanoma
[24] = test system: OVCAR-8 ovarian
[25] = test system: UACC-257 melanoma
[26] = test system: SK-MEL-5 melanoma
[27] = test system: ACHN renal
[28] = test system: U251 CNS
[29] = test system: DMS 114 small cell lung
[30] = test system: NCI-H460 lung
[31] = test system: OVCAR-4 ovarian
[32] = test system: OVCAR-3 ovarian
[33] = test system: KM12 colon
[34] = test system: SK-MEL-2 melanoma
[35] = test system: CCRF-CEM leukemia
[36] = test system: SNB-78 CNS
[37] = test system: LOX IMVI melanoma
[38] = test system: HCT-15 colon
[39] = test system: HOP-92 NSCLC
[40] = test system: SK-MEL-28 melanoma
[41] = test system: COLO 205 colon
[42] = test system: HOP-62 NSCLC
[43] = test system: SNB-75 CNS
[44] = test system: MOLT-4 leukemia
[45] = test system: KM20L2 colon
[46] = test system: HCC-2998 colon
[47] = test system: HCT-116 colon
[48] = test system: SNB-19 CNS
[49] = test system: DLD-1 colon
[50] = test system: 786-0 renal
[51] = test system: NCI-H226 lung
[52] = test system: A498 renal
[53] = test system: SF-295 CNS
[54] = test system: NCI-H522 lung

SMILES: Cc1cc(=O)[nH]c(NN2C(Cl)C(=O)C2c2cccc(O)c2)n1 (configuration not stated)
- TGI [1]: 24.7 µM
- TGI [2]: > 100 µM
- TGI [3]: 17.8 µM
- TGI [4]: > 100 µM
- TGI [5]: > 100 µM
- TGI [6]: 31.6 µM
- TGI [7]: > 100 µM
- TGI [8]: > 100 µM
- TGI [9]: 29.8 µM
- TGI [10]: > 100 µM
- TGI [11]: > 100 µM
- TGI [12]: > 100 µM
- TGI [13]: > 100 µM
- TGI [14]: > 100 µM
- TGI [15]: > 100 µM
- TGI [16]: > 100 µM
- TGI [17]: > 100 µM
- TGI [18]: > 100 µM
- TGI [19]: > 100 µM
- TGI [20]: > 100 µM
- TGI [21]: > 100 µM
- TGI [22]: > 100 µM
- TGI [23]: > 100 µM
- TGI [24]: > 100 µM
- TGI [25]: > 100 µM
- TGI [26]: > 100 µM
- TGI [27]: > 100 µM
- TGI [28]: > 100 µM
- TGI [29]: 34.8 µM
- TGI [30]: > 100 µM
- TGI [31]: > 100 µM
- TGI [32]: 27.4 µM
- TGI [33]: > 100 µM
- TGI [34]: > 100 µM
- TGI [35]: > 100 µM
- TGI [36]: > 100 µM
- TGI [37]: > 100 µM
- TGI [38]: > 100 µM
- TGI [39]: > 100 µM
- TGI [40]: > 100 µM
- TGI [41]: > 100 µM
- TGI [42]: > 100 µM
- TGI [43]: 6.73 µM
- TGI [44]: > 100 µM
- TGI [45]: 98.5 µM
- TGI [46]: > 100 µM
- TGI [47]: > 100 µM
- TGI [48]: > 100 µM

SMILES: CNC(=S)N(C)C(=S)Nn1c(=O)c(C)nn(C)c1=S
- TGI [3]: > 100 µM
- TGI [4]: > 100 µM
- TGI [5]: > 100 µM
- TGI [6]: > 100 µM
- TGI [7]: > 100 µM
- TGI [8]: > 100 µM
- TGI [9]: > 100 µM
- TGI [10]: > 100 µM
- TGI [11]: > 100 µM
- TGI [12]: > 100 µM
- TGI [13]: > 100 µM
- TGI [14]: > 100 µM
- TGI [15]: > 100 µM
- TGI [16]: > 100 µM
- TGI [17]: > 100 µM
- TGI [18]: > 100 µM
- TGI [19]: > 100 µM
- TGI [49]: > 100 µM
- TGI [20]: > 100 µM
- TGI [21]: > 100 µM
- TGI [22]: > 100 µM
- TGI [23]: > 100 µM
- TGI [24]: > 100 µM
- TGI [25]: > 100 µM
- TGI [26]: > 100 µM
- TGI [27]: > 100 µM
- TGI [50]: > 100 µM
- TGI [28]: > 100 µM
- TGI [29]: > 100 µM
- TGI [30]: > 100 µM
- TGI [31]: > 100 µM
- TGI [33]: > 100 µM
- TGI [35]: > 100 µM
- TGI [36]: > 100 µM
- TGI [37]: > 100 µM
- TGI [38]: > 100 µM
- TGI [39]: > 100 µM
- TGI [51]: > 100 µM
- TGI [40]: > 100 µM
- TGI [52]: > 100 µM
- TGI [41]: > 100 µM
- TGI [42]: > 100 µM
- TGI [43]: > 100 µM
- TGI [53]: > 100 µM
- TGI [54]: > 100 µM
- TGI [44]: > 100 µM
- TGI [45]: > 100 µM
- TGI [47]: > 100 µM
- TGI [48]: > 100 µM
